Marks after values point to notes of the source that are not given here.
System: C. albicans
Assay: in vivo antifungal activity, candidemia in mice infected with C. albicans
Parameters: species or system Albino male mice; Total Protein Mean ± SE: unit not given here
Settings: for daily body weight / % change in daily body weight / Food consumption / Mortality / Water consumption: oral 12 mg/kg then 6 mg/ml
Experimental: To confirm that the water soluble form of the compound 4 has a biological activity as a novel antimicrobial agent, effectiveness of the compound 4 as a drug to treat candidemia in mice was investigated. The experiment was performed in Experimental Animal Care Center (EACC), College of Pharmacy, King Saud University, Riyadh. Fifty Albino male mice, weighing nearly 30±2 gram were used. The mice were arranged in five groups, each including ten mice caged together, given water, and feed ad libitum. Negative control and control group were infected intravenously with 0.2 ml of C. albicans suspension (10^6 CFU/mouse) and 0.2 ml of sterile normal saline (0.89% Nacl) respectively. The group treated with standard drug (fluconazole) was infected intravenously with 0.2 ml of C. albicans suspension (10^6 CFU/mouse) and treated (orally) by 12 mg/kg of fluconazole (loading dose) on the first day followed by 6 mg/ml for 2 weeks. The group treated with the investigated compound 4 was infected intravenously with C. albicans at 10^6 CFU/mouse (0.2 ml) and treated (orally) by 12 mg/kg of the compound 4 (loading dose) on the first day followed by 6 mg/ml for 2 weeks. To study the biological effects of compound 4, a fifth group was designed. In this group the mice were treated intravenously (I. V) with 12 mg/kg of the compound 4 on the first day followed by 6 mg/ml for 2 weeks. All doses of the standard drug and compound 4 were given twice daily.
The effectiveness of the previous treatments on some biological concepts were evaluated. The biological parameters included daily body weight (gm), mortality (%), food consumption (g/day/mouse), water consumption (ml/day/mouse), serum glutamic oxaloacetic transaminase [SGOT(AST) (U/L)], serum glutamic-pyruvic transaminase [SGPT(ALT)(U/L)], alkaline phosphatase (U/L), gamma-glutamyl transferase (GGT) (U/L), bilirubin (mg/dl)], cholesterol (mg/dl), triglycerides (mg/dl), high-density lipoprotein (HDL) (mg/dl), very-low-density lipoprotein (VLDL) (mg/dl), low-density lipoprotein (LDL) (mg/dl), lactate dehydrogenase (LDH) (U/L), glucose (mg/dl), total protein (mg/dl), malondialdehyde (MDA) (nmol/g), nonprotein sulfyhydryl (NP-SH) (nmol/g). Addition hematologic constituents including white blood cells (WBC) (cell/mm^3), red blood cells (RBC) (10^6/mm^3), hemoglobin (HGB) (g/dL), HCT, Platelets (PLT) (10^3/mm^3), mean corpuscular volume (MCV) (fL), mean corpuscular hemoglobin (MCH) (pg), mean corpuscular hemoglobin concentration (MCHC) (g/dL), neutrophils (%), lymphocytes (%), eosinophils (%) and monocytes (%)] were evaluated (Classics Lowry et al. 1951; Utley et al. 1967; Sedlak et al. 1968). SGOT (AST), SGPT (ALT), ALP, GGT, bilirubin LDH and total protein were estimated using Reflotron Plus Analyzer and Roche kits (Roche Diagnostics GmbH, Mannheim Germany) and United diagnostic kits assay. Hematological tests were performed by Mindray BC-2800VET auto Hematology Analyzer.

[1] = C. albicans-infected mice, day 1
[2] = C. albicans-infected mice, day 2
[3] = C. albicans-infected mice, day 3
[4] = C. albicans-infected mice, day 4
[5] = C. albicans-infected mice, day 5
[6] = C. albicans-infected mice, day 6
[7] = C. albicans-infected mice, day 7
[8] = C. albicans-infected mice, day 8
[9] = C. albicans-infected mice, day 9
[10] = C. albicans-infected mice, day 10
[11] = C. albicans-infected mice, day 11
[12] = C. albicans-infected mice, day 12
[13] = C. albicans-infected mice, day 13
[14] = C. albicans-infected mice, day 14
[15] = C. albicans-infected mice, day 15
[16] = blood, C. albicans-infected mice, oral 12 mg/kg then 6 mg/ml for 2 weeks
[17] = liver tissue, C. albicans-infected mice, oral 12 mg/kg then 6 mg/ml for 2 weeks
[18] = serum, C. albicans-infected mice, oral 12 mg/kg then 6 mg/ml for 2 weeks

CCOC(=O)CSC(=S)SCC(=O)OCC [Compound 4, diethyl 2,2′-(thiocarbonylbis(sulfanediyl))diacetate]
daily body weight (C. albicans-infected mice, day 0): 21.00 ± 0.36 gm
% change in daily body weight [1]: 2.38%
Food consumption [1]: 4.5 g/day/mice
Mortality [1]: 0%
Water consumption [1]: 4.5 g/day/mice
daily body weight [1]: 21.50 ± 0.26 gm
% change in daily body weight [2]: 4.76%
Food consumption [2]: 4.6 g/day/mice
Mortality [2]: 0%
Water consumption [2]: 4.5 g/day/mice
daily body weight [2]: 22.00 ± 0.25 gm
% change in daily body weight [3]: 6.19%
Food consumption [3]: 4.7 g/day/mice
Mortality [3]: 0%
Water consumption [3]: 4.7 g/day/mice
daily body weight [3]: 22.3 ± 0.21 gm
% change in daily body weight [4]: 9.04%
Food consumption [4]: 4.9 g/day/mice
Mortality [4]: 0%
Water consumption [4]: 4.9 g/day/mice
daily body weight [4]: 22.90 ± 0.27 gm
% change in daily body weight [5]: 12.16%
Food consumption [5]: 4.00 g/day/mice
Mortality [5]: 10%
Water consumption [5]: 4.2 g/day/mice
daily body weight [5]: 23.55 ± 0.37 gm
% change in daily body weight [6]: 15.34%
Food consumption [6]: 4.2 g/day/mice
Mortality [6]: 10%
Water consumption [6]: 4.6 g/day/mice
daily body weight [6]: 24.22 ± 0.32 gm
% change in daily body weight [7]: 17.46%
Food consumption [7]: 4.2 g/day/mice
Mortality [7]: 10%
Water consumption [7]: 5.7 g/day/mice
daily body weight [7]: 24.66 ± 0.23 gm
% change in daily body weight [8]: 18.45%
Food consumption [8]: 4.3 g/day/mice
Mortality [8]: 20%
Water consumption [8]: 4.6 g/day/mice
daily body weight [8]: 24.87 ± 0.29 gm
% change in daily body weight [9]: 20.23%
Food consumption [9]: 4.5 g/day/mice
Mortality [9]: 20%
Water consumption [9]: 4.6 g/day/mice
daily body weight [9]: 25.25 ± 0.25 gm
% change in daily body weight [10]: 20.83%
Food consumption [10]: 4.5 g/day/mice
Mortality [10]: 20%
Water consumption [10]: 4.8 g/day/mice
daily body weight [10]: 25.37 ± 0.26 gm
% change in daily body weight [11]: 24.48%
Food consumption [11]: 4.7 g/day/mice
Mortality [11]: 30%
Water consumption [11]: 5.1 g/day/mice
daily body weight [11]: 26.14 ± 0.26 gm
% change in daily body weight [12]: 25.17%
Food consumption [12]: 5.0 g/day/mice
Mortality [12]: 30%
Water consumption [12]: 5.4 g/day/mice
daily body weight [12]: 26.28 ± 0.28 gm
% change in daily body weight [13]: 29.93%
Food consumption [13]: 5.14 g/day/mice
Mortality [13]: 30%
Water consumption [13]: 5.5 g/day/mice
daily body weight [13]: 27.28 ± 0.28 gm
% change in daily body weight [14]: 34.92%
Food consumption [14]: 5.3 g/day/mice
Mortality [14]: 30%
Water consumption [14]: 5.5 g/day/mice
daily body weight [14]: 28.33 ± 0.49 gm
% change in daily body weight [15]: 36.50%
Food consumption [15]: 5.5 g/day/mice
Mortality [15]: 30%
Water consumption [15]: 5.8 g/day/mice
daily body weight [15]: 28.66 ± 0.33 gm
Eosinophils Mean ± SE [16]: 1.30 ± 0.02%
HCT Mean ± SE [16]: 31.3 ± 0.42
HGB Mean ± SE [16]: 9.8 ± 0.14 g/dL
Lymphocytes Mean ± SE [16]: 7.10 ± 0.07%
MCH Mean ± SE [16]: 26.3 ± 0.5 pg
MCHC Mean ± SE [16]: 23.4 ± 1.0 g/dL
MCV Mean ± SE [16]: 53.7 ± 2.0 fL
Monocytes Mean ± SE [16]: 0.88 ± 0.07^b %
Neutrophils Mean ± SE [16]: 24.1 ± 0.2%
PLT Mean ± SE [16]: 522.3 ± 10.1 10^3/mm^3
RBC Mean ± SE [16]: 6.16 ± 0.1 10^6/mm^3
WBC Mean ± SE [16]: 7540.8 ± 87.3 Cell/mm^3
effect on mortality caused by C. albicans, in words (dose of 800 mg as the loading dose, followed by 400 mg/d for 2 week): reduced the mortality
MDA [17]: 4.57 ± 0.25***^b nmol/g
Total Protein [17]: 77.84 ± 2.37**^b g/l
Alkaline phosphatase Mean ± SE [18]: 354.66 ± 5.57 U/L
Bilirubin Mean ± SE [18]: 1.15 ± 0.03 mg/dL
Cholesterol Mean ± SE [18]: 159.8 ± 3.4 mg/dL
GGT Mean ± SE [18]: 7.18 ± 0.20 U/L
Glucose level Mean ± SE [18]: 166.83 ± 4.32**^b mg/dl
HDL Mean ± SE [18]: 26.9 ± 1.1 mg/dL
LDH Mean ± SE [18]: 220.98 ± 3.96**^b U/L
LDL Mean ± SE [18]: 105.9 ± 4.6 mg/dL
SGOT(AST) Mean ± SE [18]: 169.33 ± 2.69 U/L
SGPT(ALT) Mean ± SE [18]: 83.50 ± 2.35 U/L
Total Protein Mean ± SE [18]: 4.91 ± 0.09
Triglycerides Mean ± SE [18]: 134.8 ± 3.8 mg/dL
VLDL Mean ± SE [18]: 26.9 ± 0.7 mg/dL
